Experimental data reported in article PMC9303312, “Balancing Histone Deacetylase (HDAC) Inhibition and Drug‐likeness: Biological and Physicochemical Evaluation of Class I Selective HDAC Inhibitors” (Chemmedchem, 2022).
Values after ≈ are worked out from the molar mass of the structure shown. Like-named read-outs stand apart in the source and are kept apart here.

Assays:
[1] = Solubility in PBS buffer by OECD flask method with HPLC quantification; format: physicochemical
HDAC1 [2] = molecular target: T1, HDAC1 (Homo sapiens, UniProt Q13547); assay: In vitro HDAC inhibition preincubation assay (ZMAL substrate)
T1 sequence (Q13547 whole entry): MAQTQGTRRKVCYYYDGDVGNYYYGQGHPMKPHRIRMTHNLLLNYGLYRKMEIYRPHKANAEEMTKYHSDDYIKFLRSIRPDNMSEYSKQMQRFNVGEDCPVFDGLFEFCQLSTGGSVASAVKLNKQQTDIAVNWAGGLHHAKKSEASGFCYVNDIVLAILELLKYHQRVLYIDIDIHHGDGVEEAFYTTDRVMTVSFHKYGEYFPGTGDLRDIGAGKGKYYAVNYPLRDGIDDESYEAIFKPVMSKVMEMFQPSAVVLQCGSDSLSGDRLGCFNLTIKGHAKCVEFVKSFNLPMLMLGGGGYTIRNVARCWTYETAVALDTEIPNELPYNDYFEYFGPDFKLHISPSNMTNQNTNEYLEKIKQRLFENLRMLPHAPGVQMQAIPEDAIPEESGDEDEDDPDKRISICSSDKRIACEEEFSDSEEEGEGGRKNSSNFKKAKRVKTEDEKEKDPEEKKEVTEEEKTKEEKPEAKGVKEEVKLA

HDAC2 [3] = molecular target: T2, HDAC2 (Homo sapiens, UniProt Q92769); assay: as above
T2 sequence (Q92769 whole entry): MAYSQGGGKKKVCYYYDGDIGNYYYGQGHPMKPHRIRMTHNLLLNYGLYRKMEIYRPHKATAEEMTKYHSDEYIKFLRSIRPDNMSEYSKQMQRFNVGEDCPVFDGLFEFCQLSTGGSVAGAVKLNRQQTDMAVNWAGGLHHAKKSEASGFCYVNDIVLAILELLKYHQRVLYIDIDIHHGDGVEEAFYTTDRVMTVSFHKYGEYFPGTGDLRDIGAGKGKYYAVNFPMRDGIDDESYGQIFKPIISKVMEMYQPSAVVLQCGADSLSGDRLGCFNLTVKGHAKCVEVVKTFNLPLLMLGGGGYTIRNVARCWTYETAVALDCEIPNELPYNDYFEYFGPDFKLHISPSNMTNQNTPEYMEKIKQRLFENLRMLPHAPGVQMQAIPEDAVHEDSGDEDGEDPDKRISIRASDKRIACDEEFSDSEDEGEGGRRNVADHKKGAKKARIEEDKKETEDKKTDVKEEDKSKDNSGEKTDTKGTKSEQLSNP

HDAC3/NcoR2 = HDAC3/NcoR2 (Homo sapiens, UniProt O15379); assay: as above
Sequence of HDAC3/NcoR2 (O15379 whole entry): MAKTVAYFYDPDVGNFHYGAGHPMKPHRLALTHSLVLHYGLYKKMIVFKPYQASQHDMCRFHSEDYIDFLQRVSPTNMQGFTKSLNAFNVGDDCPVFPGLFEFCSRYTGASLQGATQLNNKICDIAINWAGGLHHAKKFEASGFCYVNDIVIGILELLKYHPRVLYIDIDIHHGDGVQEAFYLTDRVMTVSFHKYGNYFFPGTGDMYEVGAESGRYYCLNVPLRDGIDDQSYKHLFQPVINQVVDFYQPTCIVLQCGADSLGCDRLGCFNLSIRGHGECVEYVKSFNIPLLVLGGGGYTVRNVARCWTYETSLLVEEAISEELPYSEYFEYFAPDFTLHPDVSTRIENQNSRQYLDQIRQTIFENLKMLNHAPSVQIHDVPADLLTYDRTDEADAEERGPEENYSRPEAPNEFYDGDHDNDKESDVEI
Sequence of HDAC3/NcoR2 (Q9Y618 395-489 partner limits assumed): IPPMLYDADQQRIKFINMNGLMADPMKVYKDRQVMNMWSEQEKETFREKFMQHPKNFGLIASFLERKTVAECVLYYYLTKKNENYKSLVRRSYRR

human recombinant HDAC6 = molecular target: T3, human recombinant HDAC6 (Homo sapiens, UniProt Q9UBN7); assay: as above
T3 sequence (Q9UBN7 1-1215): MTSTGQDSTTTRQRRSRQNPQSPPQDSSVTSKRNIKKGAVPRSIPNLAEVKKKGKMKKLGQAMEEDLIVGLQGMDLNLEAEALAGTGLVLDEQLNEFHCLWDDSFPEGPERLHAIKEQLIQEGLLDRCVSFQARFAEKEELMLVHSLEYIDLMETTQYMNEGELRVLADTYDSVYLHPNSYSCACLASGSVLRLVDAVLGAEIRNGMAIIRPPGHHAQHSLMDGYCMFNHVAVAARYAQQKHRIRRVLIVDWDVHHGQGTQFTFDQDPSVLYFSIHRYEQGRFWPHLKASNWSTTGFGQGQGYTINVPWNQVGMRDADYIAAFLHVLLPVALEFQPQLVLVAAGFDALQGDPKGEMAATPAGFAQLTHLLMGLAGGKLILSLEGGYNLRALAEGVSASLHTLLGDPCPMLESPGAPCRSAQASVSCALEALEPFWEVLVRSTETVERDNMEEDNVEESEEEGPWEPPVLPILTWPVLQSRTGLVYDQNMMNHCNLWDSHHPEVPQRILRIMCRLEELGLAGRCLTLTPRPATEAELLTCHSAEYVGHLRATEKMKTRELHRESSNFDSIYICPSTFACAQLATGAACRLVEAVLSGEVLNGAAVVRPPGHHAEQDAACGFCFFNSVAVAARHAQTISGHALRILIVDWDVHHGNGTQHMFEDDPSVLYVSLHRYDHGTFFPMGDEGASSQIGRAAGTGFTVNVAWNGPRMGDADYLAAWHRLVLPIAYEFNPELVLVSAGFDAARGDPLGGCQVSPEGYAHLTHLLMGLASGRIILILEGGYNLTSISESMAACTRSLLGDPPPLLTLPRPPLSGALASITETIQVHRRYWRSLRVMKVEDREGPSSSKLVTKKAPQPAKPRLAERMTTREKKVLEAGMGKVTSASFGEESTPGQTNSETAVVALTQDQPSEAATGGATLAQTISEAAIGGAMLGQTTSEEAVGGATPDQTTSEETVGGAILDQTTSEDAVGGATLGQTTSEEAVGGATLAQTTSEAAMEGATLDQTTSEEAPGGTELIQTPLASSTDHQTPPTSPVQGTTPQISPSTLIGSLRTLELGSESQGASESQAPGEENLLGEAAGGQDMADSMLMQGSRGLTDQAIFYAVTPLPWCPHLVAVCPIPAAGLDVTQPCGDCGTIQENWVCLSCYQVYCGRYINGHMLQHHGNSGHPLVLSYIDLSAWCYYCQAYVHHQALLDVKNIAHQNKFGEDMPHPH

[4] = LogD7.4 by OECD slow-stirring method with HPLC quantification; details: 1-octanol/PBS buffer (mutually saturated)
HDAC1 [5] = molecular target: T1, HDAC1; assay: IC50-shift experiments (varied preincubation time); format: biochemical; details: triplicates
HDAC1 [6] = molecular target: T1, HDAC1; assay: Binding kinetics via the Progression Method; format: biochemical; details: relationship between kobs and [I]; triplicates
HDAC1 [7] = molecular target: T1, HDAC1; assay: 100-fold Jump-Dilution experiments; format: biochemical; details: diluted inhibitor concentration as indicated per compound, vehicle [DMSO 1 %]=111.9
[8] = tested on: acetylated α‐tubulin (HDAC6 activity) in MCF‐7 cells; assay: Western blot target engagement in MCF-7 cells: acetylated α-tubulin; format: cell-based, human; details: MCF-7 cell lysates after 24-hour treatment
MCF‐7 cells = assay: Modified wound healing (migration) assay; format: cell-based, human; details: MCF-7, 10 μM, followed over 97 h, compared to DMSO control
[9] = tested on: T‐47D breast cancer cell line; assay: WST-8 cell viability assay; details: Homo sapiens, T47D, 120 h, read-out: IC50 T‐47D
[10] = tested on: MCF‐7 breast cancer cell line; assay: WST-8 cell viability assay; details: Homo sapiens, MCF7, 120 h, read-out: IC50 MCF‐7
[11] = tested on: BT‐474 breast cancer cell line; assay: WST-8 cell viability assay; details: Homo sapiens, BT-474, 120 h, read-out: IC50 BT‐474
HDAC2 [12] = molecular target: T2, HDAC2; assay: IC50-shift experiments (varied preincubation time); format: biochemical; parameters: purchased BPS Bioscience 50052; details: triplicates
HDAC3 = HDAC3 (Homo sapiens, UniProt O15379); assay: Binding kinetics via the Progression Method; format: biochemical
Sequence of HDAC3 (O15379 whole entry): as the sequence (O15379 whole entry) above
Sequence of HDAC3 (Q9Y618 395-489 partner limits assumed): as the sequence (Q9Y618 395-489 partner limits assumed) above

[13] = 25 °C, pH 7.4, aqueous buffer, thermodynamic from solid, pH=7.4, flask method, 25 °C, 72 h, mean ±SD, read-out: Solubility
[14] = pH 7.4, LogD7.4, slow-stirring method, 1-octanol/PBS buffer pH 7.4, 25 °C, 48 h
[15] = HDAC2 IC50, preincubation 5 min, preincubation time 5 min at 20°C
[16] = HDAC2 IC50, preincubation 15 min, preincubation time 15 min at 20°C
[17] = HDAC2 IC50, preincubation 30 min, preincubation time 30 min at 20°C
[18] = HDAC2 IC50, preincubation 60 min, preincubation time 60 min at 20°C
[19] = HDAC2 IC50, preincubation 120 min, preincubation time 120 min at 20°C

Row | Compound | solubility at 72 h [1, 13] | IC50 (HDAC1 [2]) | IC50 (HDAC2 [3]) | IC50 (HDAC3/NcoR2) | IC50 (human recombinant HDAC6) | logD at 48 h [4, 14] | IC50 [9] | IC50 [10] | IC50 [11] | also measured
1 | CC(=O)Nc1ccc(C(=O)Nc2cc(-c3ccccc3)ccc2N)cc1 [6 a] | 1.49 ± 0.14 µg/mL (≈ 4.31 µM) | 4.5 ± 0.1 nM | 51.4 ± 4.9 nM | 3960 nM | > 10000 nM | 2.63 | – | – | – | –
2 | CC(=O)Nc1ccc(C(=O)Nc2cc(-c3cccs3)ccc2N)cc1 [6 c] | 0.74 ± 0.01 µg/mL (≈ 2.11 µM) | – | – | – | – | 2.8 | – | – | – | –
3 | CN(C)c1ccc(C(=O)N(CC(=O)NCc2ccccc2)Cc2ccc(C(=O)Nc3cc(-c4ccncc4)ccc3N)cc2)cc1 [10 a] | – | 41.8 ± 0.2 nM | 100 ± 2.6 nM | > 6670 nM | – | – | 2570 ± 930 nM | 3240 ± 820 nM | 3930 ± 560 nM | –
4 | CN(C)c1ccc(C(=O)N(CC(=O)NC2CCCCC2)Cc2ccc(C(=O)Nc3cc(-c4ccncc4)ccc3N)cc2)cc1 [10 b] | 1.99 ± 0.04 µg/mL (≈ 3.29 µM) | 41.1 ± 3.7 nM | 85.5 ± 11.6 nM | > 3330 nM | > 10000 nM | 2.68 | 1450 ± 90 nM | 4330 ± 1540 nM | 2930 ± 430 nM | –
5 | CN(C)c1ccc(C(=O)N(CC(=O)NC(C)(C)C)Cc2ccc(C(=O)Nc3cc(-c4ccncc4)ccc3N)cc2)cc1 [10 c] | 7.48 ± 0.33 µg/mL (≈ 12.9 µM) | – | 59.3 ± 7.9 nM | 16800 nM | > 10000 nM | 2.29 | 1580 ± 480 nM | 1620 ± 320 nM | 2550 ± 400 nM | acetylated α‐tubulin (western blot) [8]: non‐detectable; effect on cell migration (wound closure) (MCF‐7 cells): attenuated cell migration comparably and significantly; effect on cell migration (wound closure) (MCF‐7 cells; listed as LSH‐A54): attenuated cell migration significantly; IC50 (HDAC2 [12]; [15]): 117 nM; IC50 (HDAC2 [12]; [16]): 106 nM; IC50 (HDAC2 [12]; [17]): 109 nM; IC50 (HDAC2 [12]; [18]): 84 nM; IC50 (HDAC2 [12]; [19]): 78.1 nM
6 | CC(=O)Nc1ccc(C(=O)Nc2ccccc2N)cc1 [CI‐994, tacedinaline, reference compound] | 200 ± 1.8 µg/mL (≈ 743 µM) | – | – | – | – | 0.84 | – | – | – | –
7 | Nc1ccccc1NC(=O)c1ccc(CNC(=O)OCc2cccnc2)cc1 [entinostat, reference compound] | – | – | – | – | – | – | 2910 ± 890 nM | 8980 ± 3000 nM | 7090 ± 1000 nM | binding mechanism at HDAC1 (HDAC1 [6]): slow-binding Mechanism II; acetylated α‐tubulin (western blot) [8]: non‐detectable; effect on cell migration (wound closure) (MCF‐7 cells): no significant effect on cell migration
8 | O=C(CCCCCCC(=O)Nc1ccccc1)NO [vorinostat, reference compound] | 255 ± 3.71 µg/mL (≈ 965 µM) | – | – | – | – | 0.99 | – | – | – | solubility at 72 h ([1]; 25 °C, pH 7.4, aqueous buffer, thermodynamic from solid, PBS buffer pH 7.4, single experiment II, read-out: Solubility (II)): 259 µg/mL (≈ 980 µM); solubility at 72 h ([1]; pH 7.4, PBS buffer pH 7.4, mean of two experiments (SD 0.00371), read-out: Solubility): 255 µg/mL (≈ 966 µM); solubility at 72 h ([1]; pH 7.4, PBS buffer pH 7.4, single experiment I, read-out: Solubility (I)): 252 µg/mL (≈ 952 µM); binding mechanism at HDAC1 (HDAC1 [6]): fast‐on/fast‐off binding kinetic; binding mechanism at HDAC3 (HDAC3): fast‐on/fast‐off binding kinetic; logD at 48 h ([4]; pH 7.4, LogD(7.4) (I), single slow-stirring experiment I): 1.01; logD at 48 h ([4]; pH 7.4, LogD(7.4) (II), single slow-stirring experiment II): 0.962; logD at 48 h ([4]; pH 7.4, LogD(7.4) (III), single slow-stirring experiment III): 0.999

Continued, in another order:

Row | solubility at 72 h [1, 13] | IC50 (HDAC1 [2]) | IC50 (HDAC2 [3]) | IC50 (HDAC3/NcoR2) | IC50 (human recombinant HDAC6) | logD at 48 h [4, 14] | IC50 [9] | IC50 [10] | IC50 [11] | Compound | also measured
9 | 0.45 ± 0.04 µg/mL (≈ 1.24 µM) | 4.4 ± 0.1 nM | 44.7 ± 6.9 nM | 2000 nM | > 10000 nM | 3.41 | – | – | – | CC(=O)Nc1ccc(C(=O)Nc2cc(-c3ccc(F)cc3)ccc2N)cc1 [6 b] | –
10 | 16.5 ± 0.3 µg/mL (≈ 47.6 µM) | 13.2 ± 1 nM | 77.2 ± 9.2 nM | 8910 nM | > 10000 nM | 1.75 | 1010 ± 190 nM | 11100 ± 3850 nM | > 8000 nM | CC(=O)Nc1ccc(C(=O)Nc2cc(-c3ccncc3)ccc2N)cc1 [6 d] | IC50 (HDAC1 [5]; HDAC1 IC50, preincubation 5 min, preincubation time 5 min at 20°C): 54.1 nM; IC50 (HDAC1 [5]; HDAC1 IC50, preincubation 15 min, preincubation time 15 min at 20°C): 53.5 nM; IC50 (HDAC1 [5]; HDAC1 IC50, preincubation 30 min, preincubation time 30 min at 20°C): 44.5 nM; IC50 (HDAC1 [5]; HDAC1 IC50, preincubation 60 min, preincubation time 60 min at 20°C): 40.8 nM; IC50 (HDAC1 [5]; HDAC1 IC50, preincubation 120 min, preincubation time 120 min at 20°C): 25.4 nM; binding mechanism at HDAC1 (HDAC1 [6]): slow‐binding Mechanism II; Final slope of progression curve after 100-fold dilution (HDAC1) (HDAC1 [7]): 39.4 RFU*min^−1; acetylated α‐tubulin (western blot) [8]: non‐detectable; effect on cell migration (wound closure) (MCF‐7 cells): attenuated cell migration significantly; IC50 (HDAC2 [12]; [15]): 98.2 nM; IC50 (HDAC2 [12]; [16]): 89 nM; IC50 (HDAC2 [12]; [17]): 83 nM; IC50 (HDAC2 [12]; [18]): 77.4 nM; IC50 (HDAC2 [12]; [19]): 63.2 nM; selectivity for HDAC1 over HDAC3 (HDAC1 [2]; ratio of IC50 values HDAC3/HDAC1): 675 fold
11 | 37.7 ± 3.61 µg/mL (≈ 109 µM) | 76.7 ± 9.2 nM | 101 ± 5.4 nM | 636 ± 49.5 nM | > 10000 nM | 1.7 | – | – | – | CC(=O)Nc1ccc(C(=O)Nc2cc(-c3cccnc3)ccc2N)cc1 [6 e] | –
12 | 42 ± 0.19 µg/mL (≈ 121 µM) | 207 ± 4.4 nM | 333 ± 5.1 nM | 17400 nM | > 10000 nM | 1.77 | – | – | – | CC(=O)Nc1ccc(C(=O)Nc2cc(-c3ccccn3)ccc2N)cc1 [6 f] | –
13 | 7.66 ± 0.08 µg/mL (≈ 21 µM) | 93.5 ± 2.4 nM | 118 ± 4 nM | 767 ± 31.7 nM | > 10000 nM | 1.97 | – | – | – | CC(=O)Nc1ccc(C(=O)Nc2cc(-c3ccc(F)nc3)ccc2N)cc1 [6 g] | –
14 | 1.58 ± 0.14 µg/mL (≈ 4.34 µM) | 153 ± 22.1 nM | 228 ± 7.8 nM | 2870 nM | > 10000 nM | 1.79 | – | – | – | CC(=O)Nc1ccc(C(=O)Nc2cc(-c3cccnc3F)ccc2N)cc1 [6 h] | –
15 | 3.72 ± 0.44 µg/mL (≈ 10.2 µM) | 329 ± 20.8 nM | 211 ± 5.4 nM | 5870 nM | > 10000 nM | 2.2 | – | – | – | CC(=O)Nc1ccc(C(=O)Nc2cc(-c3ccnc(F)c3)ccc2N)cc1 [6 i] | –
